Several values for one entry are separate records, joined by “and”; a condition that tells them apart may be missing. Identical values can stand only once. Counter-ions that a name gives are not always drawn.
Columns and labels:
[1] = tested on: ovariectomized (OVX) rats; test: Uterine wet weight in ovariectomized rat post-menopausal model, 4 days of dosing; format: in vivo, Sprague Dawley rats; details: oral; for Uterine Weight (% increase vs. OVX): daily for 4 days
Method: In the examples illustrating the methods, a post-menopausal model was used in which effects of different treatments upon circulating lipids were determined.
(§1) Seventy-five day old female Sprague Dawley rats (weight range of 200 to 225 g) were obtained from Charles River Laboratories (Portage, Mich.). The animals were either bilaterally ovariectomized (OVX) or exposed to a Sham surgical procedure at Charles River Laboratories, and then shipped after one week. Upon arrival, they were housed in metal hanging cages in groups of 3 or 4 per cage and had ad libitum access to food (calcium content approximately 0.5%) and water for one week. Room temperature was maintained at 22.2°±1.7° C. with a minimum relative humidity of 40%. The photoperiod in the room was 12 hours light and 12 hours dark.
(§2) Dosing Regimen Tissue Collection. After a one week acclimation period (therefore, two weeks post-OVX) daily dosing with test compound was initiated. 17α-ethynyl estradiol or the test compound were given orally, unless otherwise stated, as a suspension in 1% carboxymethylcellulose or dissolved in 20% cyclodextrin. Animals were dosed daily for 4 days. Following the dosing regimen, animals were weighed and anesthetized with a ketamine: Xylazine (2:1, V:V) mixture and a blood sample was collected by cardiac puncture. The animals were then sacrificed by asphyxiation with CO2, the uterus was removed through a midline incision, and a wet uterine weight was determined.

[2] = tested on: ovariectomized (OVX) rats; test: Serum cholesterol analysis in ovariectomized rats, 4 days of dosing; format: in vivo, Sprague Dawley rats; details: oral; for Serum Cholesterol (% decrease vs. OVX): daily for 4 days
Source text: as §1, §2
Cholesterol Analysis. Blood samples were allowed to clot at room temperature for 2 hours, and serum was obtained following centrifugation for 10 minutes at 3000 rpm. Serum cholesterol was determined using a Boehringer Mannheim Diagnostics high performance cholesterol assay. Briefly the cholesterol was oxidized to cholest-4-en-3-one and hydrogen peroxide. The hydrogen peroxide was then reacted with phenol and 4-aminophenazone in the presence of peroxidase to produce a p-quinone imine dye, which was read spectrophotemetrically at 500 nm. Cholesterol concentration was then calculated against a standard curve. The entire assay was automated using a Biomek Automated Workstation.

[3] = tested on: ovariectomized (OVX) rats; test: Osteoporosis Test Procedure: femur bone density in OVX rats after 35 days of dosing; format: in vivo, Sprague Dawley rats; details: for Bone Density: 100 μg/kg, mean ± SEM
Source text: Seventy-five day old female Sprague Dawley rats (weight range of 200 to 225 g) were obtained from Charles River Laboratories (Portage, Mich.). The animals were either bilaterally ovariectomized (OVX) or exposed to a Sham surgical procedure at Charles River Laboratories, and then shipped after one week. Upon arrival, they were housed in metal hanging cages in groups of 3 or 4 per cage and had ad libitum access to food (calcium content approximately 0.5%) and water for one week. Room temperature was maintained at 22.2°±1.7° C. with a minimum relative humidity of 40%. The photoperiod in the room was 12 hours light and 12 hours dark. Following the General Preparation Procedure, infra, the rats were treated daily for 35 days (6 rats per treatment group) and sacrificed by decapitation on the 36th day. The 35 day time period was sufficient to allow maximal reduction in bone density, measured as described herein. At the time of sacrifice, the uteri were removed, dissected free of extraneous tissue, and the fluid contents were expelled before determination of wet weight in order to confirm estrogen deficiency associated with complete ovariectomy. […] The uteri were then placed in 10% neutral buffered formalin to allow for subsequent histological analysis. The right femurs were excised and scanned at the distal metaphysis 1 mm from the patellar groove with single photon absorptiometry. Results of the densitometer measurements represent a calculation of bone density as a function of the bone mineral content and bone width. In accordance with the above procedures, compounds of the present invention and ethynyl estradiol (EE2) in 20% hydroxypropyl β-cyclodextrin were orally administered to test animals. Data presented in Tables 5 and 6 below are the results of these treatments compared to intact and ovariectomized test animals. Results are reported as the mean±the standard error of the mean.

[4] = tested on: Uterine Eosinophil Peroxidase (EPO); test: Uterine Eosinophil Peroxidase (EPO) Assay on uteri of dosed OVX rats; format: in vivo, Sprague Dawley rats; parameters: unit not given here
Source text: as §1, §2
Uterine Eosinophil Peroxidase (EPO) Assay. Uteri were kept at 4° C. until time of enzymatic analysis. The uteri were then homogenized in 50 volumes of 50 mM Tris buffer (pH−8.0) containing 0.005% Triton X-100. Upon addition of 0.01% hydrogen peroxide and 10 mM o-phenylenediamine (final concentrations) in Tris buffer, increase in absorbance was monitored for one minute at 450 nm. The presence of eosonophils in the uterus is an indication of estrogenic activity of a compound. The maximal velocity of a 15 second interval was determined over the initial, linear portion of the reaction curve.

[5] = tested on: MCF-7 breast adenocarcinoma cells; test: MCF-7 Proliferation Assay (tritiated thymidine); format: cell-based; details: Homo sapiens, MCF7; MCF-7 cells, 48 hours with drug, tritiated thymidine pulse 4 hours
Method: MCF-7 breast adenocarcinoma cells (ATCC HTB 22) were maintained in MEM (minimal essential medium, phenol red-free, Sigma, St. Louis, Mo.) supplimented with 10% fetal bovine serum (FBS) (V/V), L-glutamine (2 mM), sodium pyruvate (1 mM), HEPES {(N-[2-hydroxyethyl]piperazine-N′-[2-ethanesulfonic acid]10 mM}, non-essential amino acids and bovine insulin (1 ug/mL) (maintenance medium). Ten days prior to assay, MCF-7 cells were switched to maintenance medium supplemented with 10% dextrancoated charcoal stripped fetal bovine serum (DCC-FBS) assay medium) in place of 10% FBS to deplete internal stores of steroids. MCF-7 cells were removed from maintenance flasks using cell dissociation medium (Ca++/Mg++ free HBSS (phenol red-free) supplemented with 10 mM HEPES and 2 mM EDTA). Cells were washed twice with assay medium and adjusted to 80,000 cells/mL. Approximately 100 μL (8,000 cells) were added to flat-bottom microculture wells (Costar 3596) and incubated at 37° C. in a 5% CO2 humidified incubator for 48 hours to allow for cell adherence and equilibration after transfer. Serial dilutions of drugs or DMSO as a diluent control were prepared in assay medium and 50 μL transferred to triplicate microcultures followed by 50 μL assay medium for a final volume of 200 μL. After an additional 48 hours at 37° C. in a 5% CO2 humidified incubator, microcultures were pulsed with tritiated thymidine (1 uCi/well) for 4 hours. Cultures were terminated by freezing at −70° C. for 24 hours followed by thawing and harvesting of microcultures using a Skatron Semiautomatic Cell Harvester. Samples were counted by liquid scintillation using a Wallac BetaPlace β counter. Results in Table 7 below show the IC50 for certain compounds of the present invention.

[6] = female, Sprague Dawley, rat, in vivo, po, 0.1 mg/kg, 4 days
[7] = female, Sprague Dawley, rat, in vivo, po, 1 mg/kg, 4 days
[8] = female, Sprague Dawley, rat, in vivo, po, 10 mg/kg, 4 days

Uterine Weight (% increase vs. OVX) ([1]; dose 0.1 mg/kg)	Uterine EPO (V. max) ([4]; OVX rats, oral, daily for 4 days, dose 0.1 mg/kg)	Uterine Weight (% increase vs. OVX) ([1]; dose 1.0 mg/kg) [%]	Uterine Weight (% increase vs. OVX) ([1]; dose 10.0 mg/kg) [%]	Uterine EPO (V. max) [4, 6]	Uterine EPO (V. max) [4, 7]	Uterine EPO (V. max) [4, 8]	IC50 [5] [nM]	Compound	Effect on uterine weight compared to ovariectomized test animals (in words) ([1]; EE2 at 0.1 mg/Kg/day)	Effect on serum cholesterol compared to ovariectomized control animals (in words) ([2]; EE2 at 0.1 mg/Kg/day)	Serum Cholesterol (% decrease vs. OVX) ([2]; dose 0.1 mg/kg)	Bone Density ([3]; Table 5, oral, OVX control 26.18, intact control 70.22, * P <= 0.05) [mg/cm/cm]	Bone Density ([3]; Table 6, oral, OVX control 32.46, intact control 81.27, * P <= 0.05) [mg/cm/cm]	Prevention of femur bone loss caused by ovariectomy (in words) ([3]; oral)	Serum Cholesterol (% decrease vs. OVX) ([2]; dose 1.0 mg/kg) [%]	Serum Cholesterol (% decrease vs. OVX) ([2]; dose 10.0 mg/kg) [%]
111.5% and 178.3%	246.0 and 173.3	–	–	–	–	–	–	C#C[C@]1(O)CC[C@H]2[C@@H]3CCc4cc(O)ccc4[C@H]3CC[C@@]21C [EE2, 17α-ethynyl estradiol, reference compound]	substantially greater than the uterine weight of ovariectomized test animals	decrease in serum cholesterol	89.5% and 91.8%	47.94 ± 3.71	47.31 ± 6.42	prevented this loss	–	–
52.2%	–	39.1	45.6	7.4	4.7	14.5	–	Oc1ccc(-c2sc3cc(O)ccc3c2C(O)c2ccc(OCCN3CCCCC3)cc2)cc1 (centres unmarked) [(b)-Ex2, [6-Hydroxy-2-(4-Hydroxyphenyl)Benzo[B]Thien-3-Yl][4-[2-(1-Piperidinyl)Ethoxy]Phenyl]Methanol]	–	–	22.2%	–	–	–	43.5	61.6
−16.6%	–	−18.4	−19.5	1.8	3.5	2.8	1000	CCCCS(=O)(=O)Oc1ccc(-c2sc3cc(OS(=O)(=O)CCCC)ccc3c2Cc2ccc(OCCN3CCCCC3)cc2)cc1 [(r)-Ex18, [6-{n-Butylsulfonoyloxy}-2-(4-{n-Butylsulfonoyloxy}Phenyl)Benzo[B]Thien-3-Yl][4-[2-(1-Piperidinyl)Ethoxy]Phenyl]Methane Hydrochloride]	–	–	65.4%	–	–	–	67.0	67.9
−19.6%	–	−28.7	−26.6	1.8	2.6	2.3	0.01	O=C(Oc1ccc(-c2sc3cc(OC(=O)c4ccccc4)ccc3c2Cc2ccc(OCCN3CCCCC3)cc2)cc1)c1ccccc1 [(s)-Ex21, [6-Benzoyloxy-2-(4-Benzoyloxyphenyl)Benzo[B]Thien-3-Yl][4-[2-{1-Piperidinyl}Ethoxy]Phenyl]Methane]	–	–	66.2%	–	–	–	63.4	64.4
–	–	–	–	–	–	–	1	C[C@]12CC[C@@H]3c4ccc(O)cc4CC[C@H]3[C@@H]1CCC2=O [Estrone, reference compound]	–	–	–	–	–	–	–	–
4.0%	–	23.1	5.2	7.3	4.8	5.5	–	Oc1ccc(-c2sc3cc(O)ccc3c2Cc2ccc(OCCN3CCCCC3)cc2)cc1 [(k)-Ex11, [6-Hydroxy-2-(4-Hydroxyphenyl)Benzo[B]Thien-3-Yl][4-[2-(1-Piperidinyl)Ethoxy]Phenyl]Methane Hydrochloride]	–	–	43.7%	–	–	–	63.0	60.7

— US6399634B1, “Benzothiophene compounds, compositions, and methods” (Eli Lilly and Company, priority 1994, dated 2002)
